In ChEMBL document CHEMBL1146299, “Molecular modeling of binding between amidinobenzisothiazoles, with antidegenerative activity on cartilage, and matrix metalloproteinase-3” (Bioorg Med Chem, 2007):

Assay: Dissociation constant, pKa of the compound
Assay type: physicochemical

| pKa | SMILES |
| --- | --- |
| 6.99 | CC(=N)Nc1nsc2ccccc12 |
| 4.84 | N=C(Nc1nsc2ccccc12)c1ccc(Cl)cc1 |
| 5.4 | N=C(Nc1nsc2ccccc12)c1ccccc1 |
